Each block holds one compound with its values, some of them ahead of it.
Tested on: K24384-001-R-PDC complex spheroid growth
Experiment: Anticancer human tumor K24384-001-R-PDC patient-derived pancreatic adenocarcinoma cell line growth inhibition [AhR]
Conditions: for IC50: curve of first compound; for viability, T/C: stronger effect = lower value
Procedure, shortened: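 Agents were dosed in half-log steps down from roughly clinical Cmax, or from 10 microM where Cmax was unknown, alone and with AhR antagonists. Read-out: percent test/control growth of tumor spheroids containing HUVEC and MSC stromal cells.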

[1] = second compound 0.1 µM, first compound 0.0316 µM
[2] = second compound 0.1 µM, first compound 0.1 µM
[3] = second compound 0.316 µM, first compound 0.0316 µM
[4] = second compound 0.316 µM, first compound 0.1 µM
[5] = second compound 1 µM, first compound 0.0316 µM
[6] = second compound 1 µM, first compound 0.1 µM
[7] = second compound 3.16 µM, first compound 0.0316 µM
[8] = second compound 3.16 µM, first compound 0.1 µM
[9] = second compound 10 µM, first compound 0.0316 µM
[10] = second compound 10 µM, first compound 0.1 µM
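Throughout, for viability, T/C: percent of DMSO vehicle-treated spheroid viability set as 100%.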

- IC50 (second compound 0.1 µM): > 100 nM
- IC50 (second compound 0.316 µM): > 100 nM
- IC50 (second compound 1 µM): > 100 nM
- IC50 (second compound 3.16 µM): > 100 nM
- IC50 (second compound 10 µM): < 0.316 nM
Structure (SMILES): Cn1ncnc1C1c2n[nH]c(=O)c3cc(F)cc(c23)NC1c1ccc(F)cc1 (stereo not given) + Cc1cncc(-c2nc(NCCc3c[nH]c4ccccc34)c3ncn(C(C)C)c3n2)c1
- viability, T/C (second compound 0.1 µM, first compound 0.000316 µM): 94.1%
- viability, T/C (second compound 0.1 µM, first compound 0.001 µM): 93.8%
- viability, T/C (second compound 0.1 µM, first compound 0.00316 µM): 99.8%
- viability, T/C (second compound 0.1 µM, first compound 0.01 µM): 107%
- viability, T/C [1]: 94.7%
- viability, T/C [2]: 76.3%
- viability, T/C (second compound 0.316 µM, first compound 0.000316 µM): 98.1%
- viability, T/C (second compound 0.316 µM, first compound 0.001 µM): 108%
- viability, T/C (second compound 0.316 µM, first compound 0.00316 µM): 104%
- viability, T/C (second compound 0.316 µM, first compound 0.01 µM): 92.2%
- viability, T/C [3]: 99.4%
- viability, T/C [4]: 71.8%
- viability, T/C (second compound 1 µM, first compound 0.000316 µM): 104%
- viability, T/C (second compound 1 µM, first compound 0.001 µM): 110%
- viability, T/C (second compound 1 µM, first compound 0.00316 µM): 105%
- viability, T/C (second compound 1 µM, first compound 0.01 µM): 101%
- viability, T/C [5]: 74.3%
- viability, T/C [6]: 66.8%
- viability, T/C (second compound 3.16 µM, first compound 0.000316 µM): 101%
- viability, T/C (second compound 3.16 µM, first compound 0.001 µM): 86.7%
- viability, T/C (second compound 3.16 µM, first compound 0.00316 µM): 104%
- viability, T/C (second compound 3.16 µM, first compound 0.01 µM): 64.8%
- viability, T/C [7]: 69.8%
- viability, T/C [8]: 71.5%
- viability, T/C (second compound 10 µM, first compound 0.000316 µM): 15.3%
- viability, T/C (second compound 10 µM, first compound 0.001 µM): 12%
- viability, T/C (second compound 10 µM, first compound 0.00316 µM): 14.2%
- viability, T/C (second compound 10 µM, first compound 0.01 µM): 11.5%
- viability, T/C [9]: 12.1%
- viability, T/C [10]: 14.5%

- IC50 (second compound 0.1 µM): 2330 nM
- IC50 (second compound 0.316 µM): 2320 nM
- IC50 (second compound 1 µM): 2370 nM
- IC50 (second compound 3.16 µM): 1510 nM
- IC50 (second compound 10 µM): < 31.6 nM
Structure (SMILES): NS(=O)(=O)OCC1CC(n2ccc3c(NC4CCc5ccccc54)ncnc32)CC1O (stereo not given) + Cc1cncc(-c2nc(NCCc3c[nH]c4ccccc34)c3ncn(C(C)C)c3n2)c1
- viability, T/C [1]: 130%
- viability, T/C [2]: 150%
- viability, T/C (second compound 0.1 µM, first compound 0.316 µM): 67.3%
- viability, T/C (second compound 0.1 µM, first compound 1 µM): 107%
- viability, T/C (second compound 0.1 µM, first compound 3.16 µM): 29.7%
- viability, T/C (second compound 0.1 µM, first compound 10 µM): 29.1%
- viability, T/C [3]: 141%
- viability, T/C [4]: 161%
- viability, T/C (second compound 0.316 µM, first compound 0.316 µM): 56.1%
- viability, T/C (second compound 0.316 µM, first compound 1 µM): 124%
- viability, T/C (second compound 0.316 µM, first compound 3.16 µM): 24%
- viability, T/C (second compound 0.316 µM, first compound 10 µM): 23.6%
- viability, T/C [5]: 167%
- viability, T/C [6]: 154%
- viability, T/C (second compound 1 µM, first compound 0.316 µM): 62%
- viability, T/C (second compound 1 µM, first compound 1 µM): 84.6%
- viability, T/C (second compound 1 µM, first compound 3.16 µM): 27.9%
- viability, T/C (second compound 1 µM, first compound 10 µM): 27%
- viability, T/C [7]: 132%
- viability, T/C [8]: 153%
- viability, T/C (second compound 3.16 µM, first compound 0.316 µM): 59.8%
- viability, T/C (second compound 3.16 µM, first compound 1 µM): 86.4%
- viability, T/C (second compound 3.16 µM, first compound 3.16 µM): 20.4%
- viability, T/C (second compound 3.16 µM, first compound 10 µM): 20.6%
- viability, T/C [9]: 27.1%
- viability, T/C [10]: 15.2%
- viability, T/C (second compound 10 µM, first compound 0.316 µM): 10.5%
- viability, T/C (second compound 10 µM, first compound 1 µM): 11.1%
- viability, T/C (second compound 10 µM, first compound 3.16 µM): 5.02%
- viability, T/C (second compound 10 µM, first compound 10 µM): 5.87%
